Data from patent US11123337B2, “4-methylsulfonyl-substituted piperidine urea compounds” (MYOKARDIA, INC., priority 2015, dated 2021).

Target: bovine cardiac myosin (Bos taurus, UniProt Q9BE39)
Experiment: Myosin activation assay (PK/LDH-coupled ATPase, bovine cardiac myofibrils)
Assay type: biochemical
Details: AC20 = concentration at which total response is increased by twenty percent
In short: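 Skinned bovine cardiac myofibrils (1 mg/mL) in PIPES/MgCl2 buffer pH 6.8 at free Ca2+ giving ~50% (pCa ~6) or <5% (pCa 10) activation, with 50 μM ATP and 3.3% DMSO. ATPase rate from NADH absorbance at 340 nm (PK/LDH coupling) over 15 min at ambient temperature. AC20/AC50 from a four-parameter fit of DMSO-normalised rates.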

bovine cardiac myosin, sequence (Q9BE39 whole entry): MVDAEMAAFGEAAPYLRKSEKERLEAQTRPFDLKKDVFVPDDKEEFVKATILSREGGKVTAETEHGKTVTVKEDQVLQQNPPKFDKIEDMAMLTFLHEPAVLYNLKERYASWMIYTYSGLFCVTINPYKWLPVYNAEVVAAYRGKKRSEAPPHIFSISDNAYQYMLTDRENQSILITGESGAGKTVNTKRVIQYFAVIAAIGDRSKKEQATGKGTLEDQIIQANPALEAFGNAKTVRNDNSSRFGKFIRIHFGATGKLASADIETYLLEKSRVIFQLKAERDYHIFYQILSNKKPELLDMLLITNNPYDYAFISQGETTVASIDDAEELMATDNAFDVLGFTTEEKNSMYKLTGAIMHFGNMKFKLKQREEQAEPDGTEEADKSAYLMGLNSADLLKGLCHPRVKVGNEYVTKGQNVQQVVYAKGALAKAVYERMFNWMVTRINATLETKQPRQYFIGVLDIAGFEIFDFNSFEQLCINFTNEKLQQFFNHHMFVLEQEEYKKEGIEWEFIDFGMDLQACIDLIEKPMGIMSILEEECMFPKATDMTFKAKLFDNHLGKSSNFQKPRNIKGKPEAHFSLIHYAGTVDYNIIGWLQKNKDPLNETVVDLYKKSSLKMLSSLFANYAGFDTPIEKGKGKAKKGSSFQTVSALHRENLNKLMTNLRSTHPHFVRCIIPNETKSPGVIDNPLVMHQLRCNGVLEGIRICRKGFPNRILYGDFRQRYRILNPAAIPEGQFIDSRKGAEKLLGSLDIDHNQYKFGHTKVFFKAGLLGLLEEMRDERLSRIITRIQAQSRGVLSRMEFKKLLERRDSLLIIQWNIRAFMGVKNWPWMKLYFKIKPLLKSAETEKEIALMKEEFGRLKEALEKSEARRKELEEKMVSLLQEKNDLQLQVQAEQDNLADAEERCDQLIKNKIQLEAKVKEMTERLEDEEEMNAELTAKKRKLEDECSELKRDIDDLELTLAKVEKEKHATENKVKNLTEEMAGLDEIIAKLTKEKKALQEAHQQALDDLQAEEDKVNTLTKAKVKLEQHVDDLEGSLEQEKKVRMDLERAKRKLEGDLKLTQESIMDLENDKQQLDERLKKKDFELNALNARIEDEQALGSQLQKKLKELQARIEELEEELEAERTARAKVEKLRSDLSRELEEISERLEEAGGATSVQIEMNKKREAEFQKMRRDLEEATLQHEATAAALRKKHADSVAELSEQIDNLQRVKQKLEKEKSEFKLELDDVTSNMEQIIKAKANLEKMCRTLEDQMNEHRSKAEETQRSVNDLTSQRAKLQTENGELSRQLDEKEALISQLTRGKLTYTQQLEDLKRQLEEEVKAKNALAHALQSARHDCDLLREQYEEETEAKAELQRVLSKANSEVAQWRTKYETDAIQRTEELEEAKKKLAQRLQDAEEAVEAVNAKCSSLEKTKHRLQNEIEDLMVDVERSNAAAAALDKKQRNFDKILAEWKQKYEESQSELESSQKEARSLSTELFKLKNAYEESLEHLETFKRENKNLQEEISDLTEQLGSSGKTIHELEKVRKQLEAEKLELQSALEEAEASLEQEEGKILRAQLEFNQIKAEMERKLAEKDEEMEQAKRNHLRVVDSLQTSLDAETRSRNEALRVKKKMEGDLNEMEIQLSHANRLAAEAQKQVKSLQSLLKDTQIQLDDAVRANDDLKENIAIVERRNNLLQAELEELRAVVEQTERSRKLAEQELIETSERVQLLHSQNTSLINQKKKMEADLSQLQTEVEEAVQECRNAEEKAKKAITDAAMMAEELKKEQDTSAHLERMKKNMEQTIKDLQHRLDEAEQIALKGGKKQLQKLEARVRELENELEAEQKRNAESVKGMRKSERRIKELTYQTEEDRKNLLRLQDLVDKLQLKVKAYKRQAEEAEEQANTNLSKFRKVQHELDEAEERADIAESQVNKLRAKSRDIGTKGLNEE
bovine cardiac myosin, sequence (P85100 whole entry partner): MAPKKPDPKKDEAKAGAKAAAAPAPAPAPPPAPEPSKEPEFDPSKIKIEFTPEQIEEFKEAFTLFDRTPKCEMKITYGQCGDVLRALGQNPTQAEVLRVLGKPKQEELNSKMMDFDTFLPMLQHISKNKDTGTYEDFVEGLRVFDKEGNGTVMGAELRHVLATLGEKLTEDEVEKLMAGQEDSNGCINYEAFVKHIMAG
bovine cardiac myosin, sequence (Q3SZE5 whole entry partner): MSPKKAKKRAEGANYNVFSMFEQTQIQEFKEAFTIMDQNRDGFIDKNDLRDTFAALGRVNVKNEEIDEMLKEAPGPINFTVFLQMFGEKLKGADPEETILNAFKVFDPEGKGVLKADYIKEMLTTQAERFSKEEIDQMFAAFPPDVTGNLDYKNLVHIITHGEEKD

Row | Compound | Myosin Activation (AC20)
1 | Cc1ccc(NC(=O)N2CCC(C(C)(C)S(=O)(=O)c3cc(C(F)F)nn3C)CC2)cn1 [Compound 107, 4-(2-((3-(difluoromethyl)-1-methyl-1H-pyrazol-5-yl)sulfonyl)propan-2-yl)-N-(6-methylpyridin-3-yl)piperidine-1-carboxamide] | ++ (++ represents myosin activation value AC20 from 2 μM-5 μM)
2 | Cn1nc(C(F)F)cc1S(=O)(=O)C(C)(C)C1CCN(C(=O)Nc2ccon2)CC1 [Compound 108, 4-(2-((3-(difluoromethyl)-1-methyl-1H-pyrazol-5-yl)sulfonyl)propan-2-yl)-N-(isoxazol-3-yl)piperidine-1-carboxamide] | ++ (++ represents myosin activation value AC20 from 2 μM-5 μM)
3 | CC(C)(C1CCN(C(=O)Nc2ccc(F)nc2)CC1)S(=O)(=O)c1ccc(C#N)cc1 [Compound 109, 4-(2-((4-cyanophenyl)sulfonyl)propan-2-yl)-N-(6-fluoropyridin-3-yl)piperidine-1-carboxamide] | + (+ represents myosin activation value AC20 > 5 μM)
4 | Cn1cc(S(=O)(=O)C(C)(C)C2CCN(C(=O)Nc3cn[nH]c3)CC2)c(C(F)(F)F)n1 [Compound 110, 4-(2-((1-methyl-3-(trifluoromethyl)-1H-pyrazol-4-yl)sulfonyl)propan-2-yl)-N-(1H-pyrazol-4-yl)piperidine-1-carboxamide] | ++ (++ represents myosin activation value AC20 from 2 μM-5 μM)
5 | Cn1cc(S(=O)(=O)C(C)(C)C2CCN(C(=O)Nc3ccc(F)nc3)CC2)c(C(F)(F)F)n1 [Compound 111, N-(6-fluoropyridin-3-yl)-4-(2-((1-methyl-3-(trifluoromethyl)-1H-pyrazol-4-yl)sulfonyl)propan-2-yl)piperidine-1-carboxamide] | ++ (++ represents myosin activation value AC20 from 2 μM-5 μM)
6 | CC(C)(C1CCN(C(=O)Nc2ccon2)CC1)S(=O)(=O)c1cccc(C#N)c1 [Compound 112, 4-(2-((3-cyanophenyl)sulfonyl)propan-2-yl)-N-(isoxazol-3-yl)piperidine-1-carboxamide] | ++ (++ represents myosin activation value AC20 from 2 μM-5 μM)
7 | CC(C)(C1CCN(C(=O)Nc2ccon2)CC1)S(=O)(=O)c1ccc(C(F)(F)F)nc1 [Compound 113, N-(isoxazol-3-yl)-4-(2-((6-(trifluoromethyl)pyridin-3-yl)sulfonyl)propan-2-yl)piperidine-1-carboxamide] | + (+ represents myosin activation value AC20 > 5 μM)
8 | Cn1nc(Cl)cc1S(=O)(=O)C(C)(C)C1CCN(C(=O)Nc2ccc(F)nc2)CC1 [Compound 114, 4-(2-((3-chloro-1-methyl-1H-pyrazol-5-yl)sulfonyl)propan-2-yl)-N-(6-fluoropyridin-3-yl)piperidine-1-carboxamide] | +++ (+++ represents myosin activation value AC20 < 2 μM)
9 | Cn1nc(Cl)cc1S(=O)(=O)C(C)(C)C1CCN(C(=O)Nc2ccnc(F)c2)CC1 [Compound 115, 4-(2-((3-chloro-1-methyl-1H-pyrazol-5-yl)sulfonyl)propan-2-yl)-N-(2-fluoropyridin-4-yl)piperidine-1-carboxamide] | ++ (++ represents myosin activation value AC20 from 2 μM-5 μM)
10 | Cn1cc(S(=O)(=O)C(C)(C)C2CCN(C(=O)Nc3ccc(F)nc3)CC2)c(C(F)F)n1 [Compound 117, 4-(2-((3-(difluoromethyl)-1-methyl-1H-pyrazol-4-yl)sulfonyl)propan-2-yl)-N-(6-fluoropyridin-3-yl)piperidine-1-carboxamide] | ++ (++ represents myosin activation value AC20 from 2 μM-5 μM)
11 | Cn1cc(S(=O)(=O)C(C)(C)C2CCN(C(=O)Nc3cccnc3)CC2)c(C(F)F)n1 [Compound 118, 4-(2-((3-(difluoromethyl)-1-methyl-1H-pyrazol-4-yl)sulfonyl)propan-2-yl)-N-(pyridin-3-yl)piperidine-1-carboxamide] | +++ (+++ represents myosin activation value AC20 < 2 μM)
12 | CC(C)(C1CCN(C(=O)Nc2cncc(F)c2)CC1)S(=O)(=O)c1cccc(F)c1 [Compound 119, 4-(2-((3-fluorophenyl)sulfonyl)propan-2-yl)-N-(5-fluoropyridin-3-yl)piperidine-1-carboxamide] | ++ (++ represents myosin activation value AC20 from 2 μM-5 μM)
13 | Cn1cc(S(=O)(=O)C(C)(C)C2CCN(C(=O)Nc3ccnnc3)CC2)c(C(F)(F)F)n1 [Compound 120, 4-(2-((1-methyl-3-(trifluoromethyl)-1H-pyrazol-4-yl)sulfonyl)propan-2-yl)-N-(pyridazin-4-yl)piperidine-1-carboxamide] | ++ (++ represents myosin activation value AC20 from 2 μM-5 μM)
14 | Cc1ccc(NC(=O)N2CCC(C(C)(C)S(=O)(=O)c3cccc(F)c3)CC2)nn1 [Compound 121, 4-(2-((3-fluorophenyl)sulfonyl)propan-2-yl)-N-(6-methylpyridazin-3-yl)piperidine-1-carboxamide] | + (+ represents myosin activation value AC20 > 5 μM)
15 | Cn1nc(C(F)F)cc1S(=O)(=O)C(C)(C)C1CCN(C(=O)Nc2ccnnc2)CC1 [Compound 122, 4-(2-((3-(difluoromethyl)-1-methyl-1H-pyrazol-5-yl)sulfonyl)propan-2-yl)-N-(pyridazin-4-yl)piperidine-1-carboxamide] | +++ (+++ represents myosin activation value AC20 < 2 μM)
16 | Cn1nc(C(F)(F)F)cc1S(=O)(=O)C(C)(C)C1CCN(C(=O)Nc2ccc(F)nc2)CC1 [Compound 123, N-(6-fluoropyridin-3-yl)-4-(2-((1-methyl-3-(trifluoromethyl)-1H-pyrazol-5-yl)sulfonyl)propan-2-yl)piperidine-1-carboxamide] | ++ (++ represents myosin activation value AC20 from 2 μM-5 μM)
17 | Cn1nccc1S(=O)(=O)C(C)(C)C1CCN(C(=O)Nc2ccc(F)nc2)CC1 [Compound 124, N-(6-fluoropyridin-3-yl)-4-(2-((1-methyl-1H-pyrazol-5-yl)sulfonyl)propan-2-yl)piperidine-1-carboxamide] | + (+ represents myosin activation value AC20 > 5 μM)
18 | Cc1cnc(NC(=O)N2CCC(C(C)(C)S(=O)(=O)c3cccc(F)c3)CC2)cn1 [Compound 125, 4-(2-((3-fluorophenyl)sulfonyl)propan-2-yl)-N-(5-methylpyrazin-2-yl)piperidine-1-carboxamide] | + (+ represents myosin activation value AC20 > 5 μM)
19 | Cn1nc(C(F)(F)F)cc1S(=O)(=O)C(C)(C)C1CCN(C(=O)Nc2ccon2)CC1 [Compound 126, N-(isoxazol-3-yl)-4-(2-((1-methyl-3-(trifluoromethyl)-1H-pyrazol-5-yl)sulfonyl)propan-2-yl)piperidine-1-carboxamide] | ++ (++ represents myosin activation value AC20 from 2 μM-5 μM)
20 | Cn1nc(C(F)(F)F)cc1S(=O)(=O)C(C)(C)C1CCN(C(=O)Nc2ccnc(F)c2)CC1 [Compound 127, N-(2-fluoropyridin-4-yl)-4-(2-((1-methyl-3-(trifluoromethyl)-1H-pyrazol-5-yl)sulfonyl)propan-2-yl)piperidine-1-carboxamide] | ++ (++ represents myosin activation value AC20 from 2 μM-5 μM)
21 | Cn1nccc1S(=O)(=O)C(C)(C)C1CCN(C(=O)Nc2ccon2)CC1 [Compound 128, N-(isoxazol-3-yl)-4-(2-((1-methyl-1H-pyrazol-5-yl)sulfonyl)propan-2-yl)piperidine-1-carboxamide] | ++ (++ represents myosin activation value AC20 from 2 μM-5 μM)
22 | Cc1ccc(NC(=O)N2CCC(C(C)(C)S(=O)(=O)c3cc(C(F)(F)F)nn3C)CC2)cn1 [Compound 130, 4-(2-((1-methyl-3-(trifluoromethyl)-1H-pyrazol-5-yl)sulfonyl)propan-2-yl)-N-(6-methylpyridin-3-yl)piperidine-1-carboxamide] | ++ (++ represents myosin activation value AC20 from 2 μM-5 μM)
23 | CC(C)(C1CCN(C(=O)Nc2cnccn2)CC1)S(=O)(=O)c1cccc(F)c1 [Compound 131, 4-(2-((3-fluorophenyl)sulfonyl)propan-2-yl)-N-(pyrazin-2-yl)piperidine-1-carboxamide] | + (+ represents myosin activation value AC20 > 5 μM)
24 | CC(C)(C1CCN(C(=O)Nc2cncnc2)CC1)S(=O)(=O)c1cccc(F)c1 [Compound 132, 4-(2-((3-fluorophenyl)sulfonyl)propan-2-yl)-N-(pyrimidin-5-yl)piperidine-1-carboxamide] | + (+ represents myosin activation value AC20 > 5 μM)
25 | CC(C)(C1CCN(C(=O)Nc2cccnc2)CC1)S(=O)(=O)c1cccc(F)c1 [Compound 133, 4-(2-((3-fluorophenyl)sulfonyl)propan-2-yl)-N-(pyridin-3-yl)piperidine-1-carboxamide] | ++ (++ represents myosin activation value AC20 from 2 μM-5 μM)
26 | Cn1nccc1S(=O)(=O)C(C)(C)C1CCN(C(=O)Nc2ccnc(F)c2)CC1 [Compound 134, N-(2-fluoropyridin-4-yl)-4-(2-((1-methyl-1H-pyrazol-5-yl)sulfonyl)propan-2-yl)piperidine-1-carboxamide] | ++ (++ represents myosin activation value AC20 from 2 μM-5 μM)
27 | Cc1ccc(NC(=O)N2CCC(C(C)(C)S(=O)(=O)c3ccnn3C)CC2)cn1 [Compound 135, 4-(2-((1-methyl-1H-pyrazol-5-yl)sulfonyl)propan-2-yl)-N-(6-methylpyridin-3-yl)piperidine-1-carboxamide] | + (+ represents myosin activation value AC20 > 5 μM)
